# Reference: article PMC3891821, “Discovery of Bile Salt Hydrolase Inhibitors Using an Efficient High-Throughput Screening System” (PLoS ONE, 2014)
# Counter-ions that a name gives are not always drawn.
# Molecular target: T1, rBSH (recombinant bile salt hydrolase) (Ligilactobacillus salivarius, UniProt J7H3P9)
# T1 construct: His-tagged full-length BSH, E. coli host, Ni-NTA purified
# T1 sequence (J7H3P9 2-324): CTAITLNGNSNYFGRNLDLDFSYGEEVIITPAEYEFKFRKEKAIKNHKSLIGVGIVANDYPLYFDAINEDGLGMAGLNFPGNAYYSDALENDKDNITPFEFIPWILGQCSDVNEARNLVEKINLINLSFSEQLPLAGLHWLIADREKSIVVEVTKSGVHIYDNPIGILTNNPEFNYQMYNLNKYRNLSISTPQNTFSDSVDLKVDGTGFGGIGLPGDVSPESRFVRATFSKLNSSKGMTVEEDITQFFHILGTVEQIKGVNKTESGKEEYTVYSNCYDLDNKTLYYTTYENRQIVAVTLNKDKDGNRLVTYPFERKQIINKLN
# Assay: microplate precipitation assay, A600
# Type: biochemical
# Conditions: pH 6.0, 37 C, DTT
row,SMILES,"microplate precipitation assay, A600"
1,C[C@H](CCC(=O)NCCS(=O)(=O)O)[C@H]1CC[C@H]2[C@@H]3CC[C@@H]4C[C@H](O)CC[C@]4(C)[C@H]3C[C@H](O)[C@]12C [taurodeoxycholic acid],taurodeoxycholic acid was better than other tested conjugated bile salts

# Molecular target: T1, rBSH (recombinant bile salt hydrolase)
# Assay: two-step assay, amino acid release
# Type: biochemical
# Conditions: 37 C
row,SMILES,"two-step assay, amino acid release"
1,C[C@H](CCC(=O)NCC(=O)O)[C@H]1CC[C@H]2[C@@H]3[C@H](O)C[C@@H]4C[C@H](O)CC[C@]4(C)[C@H]3C[C@H](O)[C@]12C [sodium glycocholate],ascertain the amount of liberated amino acids from sodium glycocholate

# Molecular target: T1, rBSH (recombinant bile salt hydrolase)
# Assay: two-step BSH assay, amino acid released from glycocholate
# Type: biochemical
# Conditions: not given
# Excerpt: two-step BSH assay, amino acid released from glycocholate on rBSH (recombinant bile salt hydrolase)
SMILES,inhibition at 5000 µM [%],inhibition at 1000 µM [%]
O=C(/C=C/c1ccc(O)c(O)c1)OCCc1ccccc1 [Caffeic Acid Phenethyl Ester],99.7,
CC(C)c1cc2c(c(O)c1O)[C@@]1(C(=O)O)CCCC(C)(C)[C@@H]1CC2 [Carnosic Acid],96.8,
CC1=C(C(=O)O)N2C(=O)[C@@H](NC(=O)[C@H](N)C3=CCC=CC3)[C@H]2SC1 [Cephradine],61.8,
Cc1onc(-c2ccccc2Cl)c1C(=O)N[C@@H]1C(=O)N2[C@@H]1SC(C)(C)[C@@H]2C(=O)O [Cloxacillin],61.2,
CN(C)[C@@H]1C(O)=C(C(N)=O)C(=O)[C@@]2(O)C(O)=C3C(=O)c4c(O)ccc(Cl)c4[C@@H](O)[C@H]3C[C@@H]12 [Demeclocycline Hydrochloride],92,
C[C@H]1c2cccc(O)c2C(O)=C2C(=O)[C@]3(O)C(O)=C(C(N)=O)C(=O)[C@@H](N(C)C)[C@@H]3[C@@H](O)[C@@H]21 [Doxycycline Hydrochloride],92.9,
O=C(O[C@@H]1Cc2c(O)cc(O)cc2O[C@@H]1c1ccc(O)c(O)c1)c1cc(O)c(O)c(O)c1 [Epicatechin monogallate],98.6,
CC[C@H]1OC(=O)[C@H](C)[C@@H](O[C@H]2C[C@@](C)(OC)[C@@H](O)[C@H](C)O2)[C@H](C)[C@@H](O[C@@H]2O[C@H](C)C[C@H](N(C)C)[C@H]2O)[C@](C)(O)C[C@@H](C)C(=O)[C@H](C)[C@@H](O)[C@]1(C)O [Erythromycin],36.5,
O=c1c(O)c(-c2ccc(O)c(O)c2)oc2c(O)c(O)cc(O)c12 [Gossypetin],97.3,
CCC[C@@H]1C[C@@H](C(=O)N[C@@H]([C@H]2O[C@H](SC)[C@H](O)[C@@H](O)[C@H]2O)[C@@H](C)O)N(C)C1 [Lincomycin],67.3,
CC1=CC(=O)c2ccccc2C1=O [Menadione],87.2,
C=C1c2cccc(O)c2C(=O)C2=C(O)[C@]3(O)C(=O)C(C(N)=O)=C(O)[C@@H](N(C)C)[C@@H]3[C@@H](O)[C@H]12 [Methacycline Hydrochloride],90.2,
CN(C)[C@@H]1C(=O)C(C(N)=O)=C(O)[C@@]2(O)C(=O)C3=C(O)c4c(O)cccc4[C@@](C)(O)[C@H]3[C@H](O)[C@@H]12 [Oxytetracycline],97.4,
O=c1c(O)cccc2cc(O)c(O)c(O)c12 [Purpurogallin],83,
Cc1cc2nc3c(=O)[nH]c(=O)nc-3n(C[C@H](O)[C@H](O)[C@H](O)CO)c2cc1C [Riboflavin],,99.3
Cc1cc(C)nc(NS(=O)(=O)c2ccc(N)cc2)n1 [Sulfamethazine],48.7,
CC[C@H]1OC(=O)C[C@@H](O)[C@H](C)[C@@H](O[C@@H]2O[C@H](C)[C@@H](O[C@H]3C[C@@](C)(O)[C@@H](O)[C@H](C)O3)[C@H](N(C)C)[C@H]2O)[C@@H](CC=O)C[C@@H](C)C(=O)/C=C/C(C)=C/[C@@H]1CO[C@@H]1O[C@H](C)[C@@H](O)[C@@H](OC)[C@H]1OC [Tylosin],23.8,

# Same assay, conditions: 5000 µM; sodium glycocholate; 30 min preincubation, 37 C
row,SMILES,% Inhibition [%]
1,O=[N+]([O-])c1cc([As](=O)(O)O)ccc1O [Roxarsone],98.4
